The values that follow come from US9765087B2, “Benzimidazole derivatives” (ENANTA PHARMACEUTICALS, INC., priority 2009, dated 2017).

pEC50: −log10 of the molar value. Where only a bound is given, the exact number is not on record here.

The first test has as its system HCV 1b genotype replicon. Kind of test: HCV replicon assay (qRT-PCR or luciferase), genotype 1b. It counts as cell-based. Particulars: Hepatitis C virus, Table 11, qRT-PCR or luciferase assay, read-out: Genotype-1b replicon EC50 Range. The source says: HCV replicon cell lines (kindly provided by R. Bartenschlager) isolated from colonies as described by Lohman et. al. (Lohman et al. (1999) Science 285: 110-113, expressly incorporated by reference in its entirety) and used for all experiments. The HCV replicon has the nucleic acid sequence set forth in EMBL Accession No.: AJ242651, the coding sequence of which is from nucleotides 1801 to 8406.
The coding sequence of the published HCV replicon was synthesized and subsequently assembled in a modified plasmid pBR322 (Promega, Madison, Wis.) using standard molecular biology techniques. One replicon cell line (“SGR 11-7”) stably expresses HCV replicon RNA which consists of (i) the HCV 5′UTR fused to the first 12 amino acids of the capsid protein, (ii) the neomycin phosphotransferase gene (neo), (iii) the IRES from encephalomyocarditis virus (EMCV), and (iv) HCV […] to NSSB genes and the HCV 3′UTR. Another replicon cell line (“Huh-luc/neo-ET”) described by Vrolijk et. al. (Vrolijk et. al. (2003) Journal of Virological Methods 110:201-209, expressly incorporated by reference in its entirety) stably expresses HCV replicon RNA which consists of (i) the HCV 5′UTR fused to the first 12 amino acids of the capsid protein, (ii) the firefly luciferase reporter gene, (iii) the ubiquitin gene, (iv) the neomycin phosphotransferase gene (neo), (v) the IRES from encephalomyocarditis virus (EMCV), and (vi) HCV NS3 to NS5B genes that harbor cell culture adaptive mutations (E1202G, T1280I, K1846T) and the HCV 3′UTR.
These cell lines were maintained at 37° C., 5% CO2, 100% relative humidity in DMEM (Cat#11965-084, Invitrogen), with 10% fetal calf serum (“FCS”, Invitrogen), 1% non-essential amino acids (Invitrogen), 1% of Glutamax (Invitrogen), 1% of 100× penicillin/streptomycin (Cat#15140-122, Invitrogen) and Geneticin (Cat#10131-027, Invitrogen) at 0.75 mg/ml or 0.5 mg/ml for 11-7 and Huh-luc/neo-ET cells, respectively.
EC50 values of single agent compounds and combinations were determined by HCV RNA detection using quantitative RT-PCR, according to the manufacturer's instructions, with a TAQMAN® One-Step RT-PCR Master Mix Reagents Kit (Cat#AB 4309169, Applied Biosystems) on an ABI Model 7500 thermocycler. The TaqMan primers used for detecting and quantifying HCV RNA were obtained from Integrated DNA Technologies. HCV RNA was normalized to GAPDH RNA levels in drug-treated cells, which is detected and quantified using the Human GAPDH Endogenous Control Mix (Applied Biosystems, AB 4310884E). Total cellular RNA is purified from 96-well plates using the RNAqueous 96 kit (Ambion, Cat# AM1812). Chemical agent cytotoxicity is evaluated using an MTS assay according to the manufacturer's directions (Promega).
Since clinical drug resistance often develops in viral infections following single agent therapies, there is a need to assess the additive, antagonistic, or synergistic properties of combination therapies. We used the HCV replicon system to assess the potential use of the compound of the present invention or in combination therapies with Interferon alpha, cyclosporine analogs and inhibitors targeting other HCV proteins. The acute effects of a single or combinations of drugs are studied in the “Huh-luc/neo-ET” replicon with each chemical agent titrated in an X or Y direction in a 6 point two-fold dilution curve centered around the EC50 of each drug. Briefly, replicon cells are seeded at 7,000 cells per well in 90 ul DMEM (without phenol red, Invitrogen Cat.#31053-036) per well with 10% FCS, 1% non-essential amino acids, 1% of Glutamax and 1% of 100× penicillin/streptomycin and incubated overnight at 37° C., 5% CO2, 100% relative humidity. […]
On to `COC(=O)N[C@H](C(=O)N1CCC[C@H]1c1nc(-c2ccc(C#Cc3ccc4[nH]c([C@@H]5CCCN5C(=O)[C@@H](NC(=O)OC)[C@@H](C)OC)nc4c3)cc2)c[nH]1)C(C)C` [Example 505], for which the pEC50 (as a rule, −log10 of the EC50, conventionally taken in molar units) was more than 9.00.

Regarding `CC[C@H](C)[C@H](NC(=O)OC)C(=O)N1CCC[C@H]1c1nc2cc(-c3ccc4cc(-c5c[nH]c([C@@H]6CCCN6C(=O)[C@@H](NC(=O)OC)[C@@H](C)OC)n5)ccc4c3)ccc2[nH]1` [Example 466], the negative logarithm of the EC50 (pEC50) is more than 9.00.

For the molecule `COC(=O)N[C@@H](C)C(=O)N1CCC[C@H]1c1nc2cc(C#Cc3ccc(-c4c[nH]c([C@@H]5CCCN5C(=O)[C@@H](NC(=O)OC)C(C)C)n4)cc3)ccc2[nH]1` [Example 501], the negative-log EC50 (pEC50) was more than 9.00.

With `COC(=O)N[C@H](C(=O)N1CCC[C@H]1c1ncc(-c2ccc(CCCc3ccc4[nH]c([C@@H]5CCCN5C(=O)[C@@H](NC(=O)OC)C(C)C)nc4c3)cc2)[nH]1)C(C)C` [Example 449], the pEC50 is more than 9.00.

Consider `COC(=O)N[C@@H](C(=O)N1CCC[C@H]1c1ncc(-c2ccc(-c3ccc4[nH]c([C@@H]5CCCN5C(=O)[C@H](NC(=O)OC)c5ccccc5)nc4c3)cc2)[nH]1)c1ccccc1` [Example 2], for which the pEC50 was more than 9.00.

For `COC(=O)N[C@H](C(=O)N1CCC[C@H]1c1ncc(-c2ccc(C#Cc3ccc4nc([C@@H]5CCCN5C(=O)[C@@H](NC(=O)OC)C(C)(C)C)[nH]c4c3)cc2)[nH]1)C(C)C` [Example 529], the pEC50 was more than 9.00.

Take `COC(=O)N[C@H](C(=O)N1CCC[C@H]1c1ncc(-c2ccc(C#Cc3ccc4nc([C@@H]5CCCN5C(=O)[C@@H](NC(=O)OC)[C@@H](C)O)[nH]c4c3)cc2)[nH]1)[C@@H](C)O` [Example 527]: the pEC50 is more than 9.00.

As for `C=C(c1ccc(-c2c[nH]c([C@@H]3CCCN3C(=O)[C@@H](NC(=O)OC)C(C)C)n2)cc1)c1ccc2nc([C@@H]3CCCN3C(=O)[C@@H](NC(=O)OC)C(C)C)[nH]c2c1` [Example 493], the pEC50 is more than 9.00.

Consider `COC(=O)N[C@H](C(=O)N1CCC[C@H]1c1nc(-c2ccc(OCc3ccc4[nH]c([C@@H]5CCCN5C(=O)[C@@H](NC(=O)OC)C(C)C)nc4c3)cc2)c[nH]1)C(C)C` [Example 451], for which the pEC50 was more than 9.00.

Consider `COC(=O)N[C@H](C(=O)N1CCC[C@H]1c1ncc(-c2ccc(C#Cc3ccc4nc([C@@H]5C[C@@H](F)CN5C(=O)[C@@H](NC(=O)OC)C(C)C)[nH]c4c3)cc2)[nH]1)C(C)C` [Example 540], for which the pEC50 is more than 9.00.

Consider `COC(=O)N[C@H](C(=O)NCc1nc(-c2ccc(C#Cc3ccc4[nH]c([C@@H]5CCCN5C(=O)[C@@H](NC(=O)OC)C(C)C)nc4c3)cc2)c[nH]1)C(C)C` [Example 479], for which the pEC50 was more than 9.00.

`COC(=O)N[C@H](C(=O)N1CCC[C@H]1c1ncc(-c2ccc(C#Cc3ccc4nc([C@@H]5CCCN5C(=O)[C@@H](NC(=O)OC)C5CC5)[nH]c4c3)cc2)[nH]1)C(C)C` [Example 528]: the pEC50 was more than 9.00.

For `COC(=O)N[C@H](C(=O)N1CCC[C@H]1c1nc(-c2ccc(C#Cc3ccc4[nH]c([C@@H]5C[C@@H](O)CN5C(=O)[C@@H](NC(=O)OC)C(C)C)nc4c3)cc2)c[nH]1)C(C)C` [Example 517], the pEC50 was more than 9.00.

In the case of `COC(=O)N[C@H](C(=O)N1CCC[C@H]1c1nc(CCc2ccc3cc(-c4ccc5[nH]c([C@@H]6CCCN6C(=O)[C@@H](NC(=O)OC)C(C)C)nc5c4)ccc3c2)c[nH]1)C(C)C` [Example 472], the pEC50 was more than 9.00.

In the case of `COC(=O)N[C@H](C(=O)N1CCC[C@H]1c1ncc(-c2ccc(-c3ccc(-c4ccc5nc([C@@H]6CCCN6C(=O)[C@@H](NC(=O)OC)C(C)C)[nH]c5c4)cc3)cc2)[nH]1)C(C)C` [Example 499], the pEC50 was more than 9.00.

`COC(=O)N[C@H](C(=O)N1CCC[C@H]1c1nc(C#Cc2ccc3cc(-c4ccc5[nH]c([C@@H]6CCCN6C(=O)[C@@H](NC(=O)OC)C(C)C)nc5c4)ccc3c2)c[nH]1)C(C)C` [Example 471]: the pEC50 was more than 9.00.

With `COC(=O)N[C@H](C(=O)N1CCC[C@H]1c1nc(-c2ccc(C#Cc3ccc4[nH]c([C@@H]5CCCN5C(=O)[C@@H](c5ccccc5)C(C)C)nc4c3)cc2)c[nH]1)C(C)C` [Example 507], the pEC50 is more than 9.00.

For `COC(=O)N[C@H](C(=O)N1CCC[C@H]1c1nc(-c2ccc(C#Cc3ccc4[nH]c([C@@H]5CCCN5C(=O)[C@@H](NC(=O)OC)[C@@H](C)OC)nc4c3)cc2)c[nH]1)[C@@H](C)OC` [Example 473], the pEC50 was more than 9.00.

For `COC(=O)N[C@H](C(=O)N1CCC[C@H]1c1ncc(-c2ccc([C@H]3C[C@@H]3c3ccc4nc([C@@H]5CCCN5C(=O)[C@@H](NC(=O)OC)C(C)C)[nH]c4c3)cc2)[nH]1)C(C)C` [Example 497-a], the pEC50 is more than 9.00.

With `CCC(NC(=O)OC)(C(=O)N1CCC[C@H]1c1nc2ccc(C#Cc3ccc(-c4cnc([C@@H]5CCCN5C(=O)[C@@H](NC(=O)OC)C(C)C)[nH]4)cc3)cc2[nH]1)c1ccccc1` (stereo partly drawn) [Example 532], the pEC50 is more than 9.00.

With `COC(=O)N[C@H](C(=O)N1CCC[C@H]1c1nc(-c2ccc(C#Cc3ccc4[nH]c([C@@H]5CCCN5C(=O)OC(C)(C)C)nc4c3)cc2)c[nH]1)C(C)C` [Example 500], the pEC50 is 8.00 to 9.00.

For the molecule `COC(=O)N[C@H](C(=O)N1CCC[C@H]1c1nc(CCc2ccc(-c3ccc4[nH]c([C@@H]5CCCN5C(=O)[C@@H](NC(=O)OC)C(C)C)nc4c3)cc2)c[nH]1)C(C)C` [Example 469], the pEC50 was more than 9.00.

Take `CC[C@H](NC(=O)OC)C(=O)N1CCC[C@H]1c1nc2cc(C#Cc3ccc(-c4c[nH]c([C@@H]5CCCN5C(=O)[C@@H](NC(=O)OC)C(C)C)n4)cc3)ccc2[nH]1` [Example 502]: the pEC50 was more than 9.00.

Turning to `COC(=O)N[C@H](C(=O)N1CCC[C@H]1c1nc(-c2ccc(C#Cc3ccc4[nH]c([C@@H]5CC(F)(F)CN5C(=O)[C@@H](NC(=O)OC)C(C)C)nc4c3)cc2)c[nH]1)C(C)C` [Example 519], the negative logarithm of the EC50 (pEC50) is more than 9.00.

On to `COC(=O)N[C@H](C(=O)N1CCC[C@H]1c1nc(-c2ccc3cc(C#Cc4ccc5[nH]c([C@@H]6CCCN6C(=O)[C@@H](NC(=O)OC)C(C)C)nc5c4)ccc3c2)c[nH]1)C(C)C` [Example 475], for which the pEC50 is more than 9.00.

Still in this test, the particulars now being: Hepatitis C virus, Table 12, numeric values, read-out: 1b EC50.
Consider `COC(=O)N[C@H](C(=O)N1C[C@@H](C)C[C@H]1c1ncc(-c2ccc(C#Cc3ccc4nc([C@@H]5C[C@@]6(CCCO6)CN5C(=O)[C@@H](NC(=O)OC)C(C)C)[nH]c4c3)cc2)[nH]1)C(C)C` [Example 559], for which the pEC50 is 10.85.

As for `COC(=O)N[C@H](C(=O)N1CC2(CC2)C[C@H]1c1ncc(-c2ccc(C#Cc3ccc4nc([C@@H]5CC6(CC6)CN5C(=O)[C@H](NC(=O)OC)c5ccccc5)[nH]c4c3)cc2)[nH]1)C(C)C` [Example 578], the pEC50 was 11.22.

Consider `COC(=O)N[C@H](C(=O)N1CCC[C@H]1c1ncc(-c2ccc3cc(-c4ccc5nc([C@@H]6C[C@H](C7CC7)CN6C(=O)[C@@H](NC(=O)OC)C(C)C)[nH]c5c4)ccc3c2)[nH]1)C(C)C` [Example 642], for which the negative-log EC50 (pEC50) was 11.15.

As to `COC(=O)N[C@H](C(=O)N1C[C@@](C)(F)C[C@H]1c1ncc(-c2ccc(C#Cc3ccc4nc([C@@H]5C[C@@]6(CCCO6)CN5C(=O)[C@@H](NC(=O)OC)C(C)C)[nH]c4c3)cc2)[nH]1)C(C)C` [Example 636], the pEC50 was 10.70.

Staying with this test, now noted: Hepatitis C virus, Table 12, range class, read-out: 1b EC50 Range.
In the case of `COC(=O)N[C@H](C(=O)N1[C@@H]2C[C@@H]2C[C@H]1c1ncc(-c2ccc(C#Cc3ccc4nc([C@@H]5CC6(CC6)CN5C(=O)[C@H](NC(=O)OC)c5ccccc5)[nH]c4c3)cc2)[nH]1)C(C)C` [Example 648], the pEC50 was more than 9.00.
